{"source": "patent US9993494B2", "about": "“Compositions and methods for treating fibrotic disease” (eFFECTOR Therapeutics, Inc., priority 2014, dated 2018)", "tested_on": "normal human lung fibroblasts", "experiment": "Ribosomal profiling: translational efficiency in TGFβ-treated fibroblasts", "type": "cell-based", "procedure,_shortened": "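Genome-wide RPF and total RNA libraries (ARTseq, RNA-Seq) were made from lysates of cycloheximide-treated, PBS-washed cells. After trimming and human-genome mapping, per-gene coding-region counts were compared between RPF and RNA for translational efficiency. Genes scoring low in either fraction were dropped.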"}
{"substance": "TGFβ", "values": [{"measurement": "Log2 TE RPS8", "setting": "ENSG00000142937, 5 replicates", "result": 1.611}, {"measurement": "Log2 TE ACTA1", "setting": "ENSG00000143632, 5 replicates", "result": "−2.018"}, {"measurement": "change in translational profile of ACTA1 caused by TGFβ", "setting": "ENSG00000143632, Control vs. TGFβ", "result": "A (A = <−2.5)"}, {"measurement": "Log2 TE PLEKHA6", "setting": "ENSG00000143850, 5 replicates", "result": "−2.069"}, {"measurement": "change in translational profile of PLEKHA6 caused by TGFβ", "setting": "ENSG00000143850, Control vs. TGFβ", "result": "B (B = <−1.5 to −2.5)"}, {"measurement": "Log2 TE RPS27A", "setting": "ENSG00000143947, 5 replicates", "result": 1.275}, {"measurement": "Log2 TE AFF3", "setting": "ENSG00000144218, 5 replicates", "result": 1.146}, {"measurement": "Log2 TE RPL32", "setting": "ENSG00000144713, 5 replicates", "result": 1.916}, {"measurement": "change in translational profile of RPL32 caused by TGFβ", "setting": "ENSG00000144713, Control vs. TGFβ", "result": "E (E = <1.5 to 2.5)"}, {"measurement": "Log2 TE NICN1", "setting": "ENSG00000145029, 5 replicates", "result": 1.403}, {"measurement": "Log2 TE RPS3A", "setting": "ENSG00000145425, 5 replicates", "result": 1.661}, {"measurement": "Log2 TE RPL37", "setting": "ENSG00000145592, 5 replicates", "result": 1.808}, {"measurement": "change in translational profile of RPL37 caused by TGFβ", "setting": "ENSG00000145592, Control vs. TGFβ", "result": "E (E = <1.5 to 2.5)"}, {"measurement": "Log2 TE BTF3", "setting": "ENSG00000145741, 5 replicates", "result": 1.13}, {"measurement": "change in translational profile of BTF3 caused by TGFβ", "setting": "ENSG00000145741, Control vs. TGFβ", "result": "D (D = <1.0 to 1.5)"}, {"measurement": "Log2 TE HIGD2A", "setting": "ENSG00000146066, 5 replicates", "result": 1.196}, {"measurement": "change in translational profile of HIGD2A caused by TGFβ", "setting": "ENSG00000146066, Control vs. TGFβ", "result": "D (D = <1.0 to 1.5)"}, {"measurement": "Log2 TE SLC2A12", "setting": "ENSG00000146411, 5 replicates", "result": "−1.9708"}, {"measurement": "change in translational profile of CREB5 caused by TGFβ", "setting": "ENSG00000146592, Control vs. TGFβ", "result": "D (D = <1.0 to 1.5)"}, {"measurement": "Log2 TE ZNF92", "setting": "ENSG00000146757, 5 replicates", "result": "−1.238"}, {"measurement": "Log2 TE DENND2A", "setting": "ENSG00000146966, 5 replicates", "result": "−1.156"}, {"measurement": "change in translational profile of DENND2A caused by TGFβ", "setting": "ENSG00000146966, Control vs. TGFβ", "result": "C (C = <−1.0 to −1.5)"}, {"measurement": "Log2 TE RPL10", "setting": "ENSG00000147403, 5 replicates", "result": 1.691}, {"measurement": "change in translational profile of RPL10 caused by TGFβ", "setting": "ENSG00000147403, Control vs. TGFβ", "result": "E (E = <1.5 to 2.5)"}, {"measurement": "Log2 TE EIF3H", "setting": "ENSG00000147677, 5 replicates", "result": 1.329}, {"measurement": "change in translational profile of EIF3H caused by TGFβ", "setting": "ENSG00000147677, Control vs. TGFβ", "result": "E (E = <1.5 to 2.5)"}, {"measurement": "Log2 TE SHC3", "setting": "ENSG00000148082, 5 replicates", "result": "−1.541"}, {"measurement": "Log2 TE RPL7A", "setting": "ENSG00000148303, 5 replicates", "result": 1.65}, {"measurement": "change in translational profile of RPL7A caused by TGFβ", "setting": "ENSG00000148303, Control vs. TGFβ", "result": "E (E = <1.5 to 2.5)"}, {"measurement": "change in translational profile of EIF3M caused by TGFβ", "setting": "ENSG00000149100, Control vs. TGFβ", "result": "D (D = <1.0 to 1.5)"}, {"measurement": "Log2 TE RPS3", "setting": "ENSG00000149273, 5 replicates", "result": 1.518}, {"measurement": "change in translational profile of JPH2 caused by TGFβ", "setting": "ENSG00000149596, Control vs. TGFβ", "result": "F (F = >2.5)"}, {"measurement": "change in translational profile of FAU caused by TGFβ", "setting": "ENSG00000149806, Control vs. TGFβ", "result": "D (D = <1.0 to 1.5)"}, {"measurement": "Log2 TE CCDC102B", "setting": "ENSG00000150636, 5 replicates", "result": "−2.977"}, {"measurement": "change in translational profile of CCDC102B caused by TGFβ", "setting": "ENSG00000150636, Control vs. TGFβ", "result": "A (A = <−2.5)"}, {"measurement": "change in translational profile of FRMD4A caused by TGFβ", "setting": "ENSG00000151474, Control vs. TGFβ", "result": "C (C = <−1.0 to −1.5)"}, {"measurement": "Log2 TE CCDC122", "setting": "ENSG00000151773, 5 replicates", "result": "−1.004"}, {"measurement": "Log2 TE TMEM178", "setting": "ENSG00000152154, 5 replicates", "result": 2.016}, {"measurement": "Log2 TE HOMER1", "setting": "ENSG00000152413, 5 replicates", "result": 1.003}, {"measurement": "change in translational profile of HOMER1 caused by TGFβ", "setting": "ENSG00000152413, Control vs. TGFβ", "result": "D (D = <1.0 to 1.5)"}, {"measurement": "Log2 TE PLEKHH2", "setting": "ENSG00000152527, 5 replicates", "result": "−1.389"}, {"measurement": "change in translational profile of PLEKHH2 caused by TGFβ", "setting": "ENSG00000152527, Control vs. TGFβ", "result": "B (B = <−1.5 to −2.5)"}, {"measurement": "Log2 TE UTRN", "setting": "ENSG00000152818, 5 replicates", "result": "−1.085"}, {"measurement": "Log2 TE PTPRD", "setting": "ENSG00000153707, 5 replicates", "result": "−1.186"}, {"measurement": "change in translational profile of ANKH caused by TGFβ", "setting": "ENSG00000154122, Control vs. TGFβ", "result": "D (D = <1.0 to 1.5)"}, {"measurement": "Log2 TE ABCA6", "setting": "ENSG00000154262, 5 replicates", "result": "−2.167"}, {"measurement": "change in translational profile of ABCA6 caused by TGFβ", "setting": "ENSG00000154262, Control vs. TGFβ", "result": "A (A = <−2.5)"}, {"measurement": "change in translational profile of OBSCN caused by TGFβ", "setting": "ENSG00000154358, Control vs. TGFβ", "result": "B (B = <−1.5 to −2.5)"}, {"measurement": "Log2 TE NCAM2", "setting": "ENSG00000154654, 5 replicates", "result": "−1.135"}, {"measurement": "change in translational profile of ADAMTS5 caused by TGFβ", "setting": "ENSG00000154736, Control vs. TGFβ", "result": "C (C = <−1.0 to −1.5)"}, {"measurement": "change in translational profile of OXA1L caused by TGFβ", "setting": "ENSG00000155463, Control vs. TGFβ", "result": "D (D = <1.0 to 1.5)"}, {"measurement": "Log2 TE C9orf85", "setting": "ENSG00000155621, 5 replicates", "result": 1.112}, {"measurement": "change in translational profile of C9orf85 caused by TGFβ", "setting": "ENSG00000155621, Control vs. TGFβ", "result": "D (D = <1.0 to 1.5)"}, {"measurement": "Log2 TE FMN2", "setting": "ENSG00000155816, 5 replicates", "result": "−1.246"}, {"measurement": "Log2 TE CLIC2", "setting": "ENSG00000155962, 5 replicates", "result": "−2.392"}, {"measurement": "Log2 TE UQCRB", "setting": "ENSG00000156467, 5 replicates", "result": 1.048}, {"measurement": "Log2 TE RPL30", "setting": "ENSG00000156482, 5 replicates", "result": 1.622}, {"measurement": "change in translational profile of RPL30 caused by TGFβ", "setting": "ENSG00000156482, Control vs. TGFβ", "result": "E (E = <1.5 to 2.5)"}]}
